Several values for one entry are separate records, joined by “and”; a condition that tells them apart may be missing. Equal entries are not always repeated.
What was measured:
Growth Hormone release [1] = test: In Vivo Release of Growth Hormone in Adult Beagle Dogs; set-up: unit not given here
Protocol: (§1) In vitro and in vivo activity of certain compounds were determined in rats and adult beagle dogs (in vivo activity only).

Growth Hormone release [2] = test: In Vitro Release of Growth Hormone in Rat; type: cell-based
Protocol: as §1

Growth Hormone release [3] = test: In Vivo GH Release in Rats (i.v., serum GH by RIA); set-up: species or system Sprague-Dawley rats; conditions: i.v., serum 10 min after injection
Protocol: Immature female Sprague-Dawley rats were obtained from the Charles River Laboratories (Wilmington, Mass.). After arrival they were housed at 25° C. with a 14:10 hour light:dark cycle. Water and Purina rat chow were available ad libitum. Pups were kept with their mothers until 21 days of age.
Twenty-six day old rats, six rats per treatment group, were anesthetized interperitoneally with 50 mg/kg of pentobarbital 20 minutes prior to i.v. treatment with peptide. Normal saline with 0.1% gelatin was the vehicle for intravenous (i.v.) injections of the peptides. The anesthetized rats, weighing 55-65 grams, were injected i.v. with the quantity of grown hormone releasing compounds indicated in Table 3. Injection was made as a 0.1 mL solution into the jugular vein.
All animals were sacrificed by guillotine 10 minutes after final test injection (see Table 3). Trunk blood for the determination of blood GH levels was collected following decapitation. After allowing the blood to clot, it was centrifuged and the serum was separated from the clot. Serum was kept frozen until the day of sampling for radioimmunoassay (RIA) determination of growth hormone levels according to the following procedure, as developed by the National Institute of Arthritis, Diabetes and Digestive and Kidney Diseases (NIADDK).
Reagents are generally added to the RIA analysis tubes at a single sitting, at refrigerator temperature (about 4° C.) in the following sequence: • (a) buffer, • (b) “cold” (i.e., non-radioactive) standard or unknown serum sample to be analyzed, • (c) radio-iodinated growth hormone antigen, and • (d) growth hormone antiserum.
Reagent addition is generally carried out so that there is achieved a final RIA tube dilution of about 1:30,000 (antiserum to total liquid volume; vol:vol).
The mixed reagents are then typically incubated at room temperature (about 25° C.) for about 24 hours prior to addition of a second antibody (e.g., goat or rabbit anti-monkey gamma globulin serum) which binds to and causes precipitation of the complexed growth hormone antiserum. Precipitated contents of the RIA tubes are then analyzed for the number of counts in a specified period of time in a gamma scintillation counter. A standard curve is prepared by plotting number of radioactive counts versus growth hormone (GH) level. GH levels of unknown are then determined by reference to the standard curve.
Serum GH was measured by RIA with reagents provided by the National Hormone and Pituitary Program.
Serum levels in Tables 3 and 4 are recorded in ng/mL in terms of the rat GH standard of 0.61 International Units/mg (IU/mg). Data is recorded as the mean ±standard error of the mean (SEM). Statistical analysis was performed with Student's t-test. In Table 3, the results shown are the average of studies with six rats.

[4] = compound at 1 (dose unit not given)
[5] = compound at .01 (dose unit not given)
[6] = compound at .1 (dose unit not given)
[7] = compound at .3 (dose unit not given)
[8] = compound at 3 (dose unit not given)

Q: Which results are given for Aib-DTrp-DPro-diisobutylamide?
A: In Vivo Release of Growth Hormone in Adult Beagle Dogs (Growth Hormone release [1]; oral dose 1 mg/kg, time 0.5 hr, listed as DPo-diisobutylamide, 1 mg/kg): 85 and 128 and 89; In Vivo Release of Growth Hormone in Adult Beagle Dogs (Growth Hormone release [1]; oral dose 1 mg/kg, time 1 hr, listed as DPo-diisobutylamide, 1 mg/kg): 30 and 50 and 59; In Vivo Release of Growth Hormone in Adult Beagle Dogs (Growth Hormone release [1]; oral dose 1 mg/kg, time 2 hr, listed as DPo-diisobutylamide, 1 mg/kg): 16 and 24 and 30; In Vivo Release of Growth Hormone in Adult Beagle Dogs (Growth Hormone release [1]; oral dose 1 mg/kg, time 4 hr, listed as DPo-diisobutylamide, 1 mg/kg): 6 and 5.6 and 7; In Vivo Release of Growth Hormone in Adult Beagle Dogs (Growth Hormone release [1]; oral dose 1 mg/kg, time 7 hr, listed as DPo-diisobutylamide, 1 mg/kg): 2.5 and 2.2 and 3.7; In Vivo Release of Growth Hormone in Adult Beagle Dogs (Growth Hormone release [1]; oral dose 2 mg/kg, time 0.5 hr): 54; In Vivo Release of Growth Hormone in Adult Beagle Dogs (Growth Hormone release [1]; oral dose 2 mg/kg, time 1 hr): 30; In Vivo Release of Growth Hormone in Adult Beagle Dogs (Growth Hormone release [1]; oral dose 2 mg/kg, time 2 hr): 22; In Vivo Release of Growth Hormone in Adult Beagle Dogs (Growth Hormone release [1]; oral dose 2 mg/kg, time 3 hr): 15; In Vivo Release of Growth Hormone in Adult Beagle Dogs (Growth Hormone release [1]; oral dose 2 mg/kg, time 4 hr): 7; In Vivo Release of Growth Hormone in Adult Beagle Dogs (Growth Hormone release [1]; oral dose 2 mg/kg, time 5 hr): 4.6; In Vivo Release of Growth Hormone in Adult Beagle Dogs (Growth Hormone release [1]; oral dose 2 mg/kg, time 6 hr): 4.8; In Vivo Release of Growth Hormone in Adult Beagle Dogs (Growth Hormone release [1]; oral dose 2 mg/kg, time 8 hr): 1.8; In Vivo Release of Growth Hormone in Adult Beagle Dogs (Growth Hormone release [1]; oral dose 4 mg/kg, time 0 hr, listed as DPo-diisobutylamide, 4 mg/kg): 1.4 and 0.8; In Vivo Release of Growth Hormone in Adult Beagle Dogs (Growth Hormone release [1]; oral dose 4 mg/kg, time 3 hr, listed as DPo-diisobutylamide, 4 mg/kg): 15 and 22; In Vivo Release of Growth Hormone in Adult Beagle Dogs (Growth Hormone release [1]; oral dose 4 mg/kg, time 7 hr, listed as DPo-diisobutylamide, 4 mg/kg): 6.9; In Vitro Release of Growth Hormone in Rat, GH (Growth Hormone release [2]; [4]): 1124 ng/mL; In Vitro Release of Growth Hormone in Rat, GH (Growth Hormone release [2]; [5]): 1322 ng/mL; In Vitro Release of Growth Hormone in Rat, GH (Growth Hormone release [2]; compound at .03 (dose unit not given)): 1529 ng/mL; In Vitro Release of Growth Hormone in Rat, GH (Growth Hormone release [2]; [6]): 1427 ng/mL; In Vitro Release of Growth Hormone in Rat, GH (Growth Hormone release [2]; [7]): 1155 ng/mL; In Vivo Release of Growth Hormone in Rat, GH (Growth Hormone release [3]; [4]): 642 ng/mL; In Vivo Release of Growth Hormone in Rat, GH (Growth Hormone release [3]; [8]): 1524 ng/mL; In Vivo Release of Growth Hormone in Rat, GH (Growth Hormone release [3]; compound at 10 (dose unit not given)): 1837 ng/mL; In Vivo Release of Growth Hormone in Rat, GH (Growth Hormone release [3]; compound at 30 (dose unit not given)): 2307 ng/mL; In Vivo Release of Growth Hormone in Rat, GH (Growth Hormone release [3]; compound at 100 (dose unit not given)): 2913 ng/mL

Q: What does the source list for “Aib-DTrp-DTrp-Phe-Arg-5-aminopentylamide [DTrpPhe-Arg-5-amino pentamide]”?
A: In Vivo Release of Growth Hormone in Adult Beagle Dogs (Growth Hormone release [1]; oral dose 1 mg/kg, time 0 hr): 2.5; In Vivo Release of Growth Hormone in Adult Beagle Dogs (Growth Hormone release [1]; oral dose 1 mg/kg, time 0.5 hr): 38; In Vivo Release of Growth Hormone in Adult Beagle Dogs (Growth Hormone release [1]; oral dose 1 mg/kg, time 1 hr): 8.5; In Vivo Release of Growth Hormone in Adult Beagle Dogs (Growth Hormone release [1]; oral dose 1 mg/kg, time 2 hr): 2.8; In Vivo Release of Growth Hormone in Adult Beagle Dogs (Growth Hormone release [1]; oral dose 1 mg/kg, time 3 hr): 2.3; In Vivo Release of Growth Hormone in Adult Beagle Dogs (Growth Hormone release [1]; oral dose 1 mg/kg, time 4 hr): 1.4; In Vivo Release of Growth Hormone in Adult Beagle Dogs (Growth Hormone release [1]; oral dose 1 mg/kg, time 5 hr): 1.7; In Vivo Release of Growth Hormone in Adult Beagle Dogs (Growth Hormone release [1]; oral dose 1 mg/kg, time 6 hr): 2.1; In Vivo Release of Growth Hormone in Adult Beagle Dogs (Growth Hormone release [1]; oral dose 1 mg/kg, time 7 hr): 2; In Vivo Release of Growth Hormone in Adult Beagle Dogs (Growth Hormone release [1]; oral dose 1 mg/kg, time 8 hr): 0.8; In Vivo Release of Growth Hormone in Adult Beagle Dogs (Growth Hormone release [1]; oral dose 2 mg/kg, time 0 hr): 3.1; In Vivo Release of Growth Hormone in Adult Beagle Dogs (Growth Hormone release [1]; oral dose 2 mg/kg, time 0.5 hr): 83; In Vivo Release of Growth Hormone in Adult Beagle Dogs (Growth Hormone release [1]; oral dose 2 mg/kg, time 1 hr): 20; In Vivo Release of Growth Hormone in Adult Beagle Dogs (Growth Hormone release [1]; oral dose 2 mg/kg, time 2 hr): 6.8; In Vivo Release of Growth Hormone in Adult Beagle Dogs (Growth Hormone release [1]; oral dose 2 mg/kg, time 3 hr): 3.9; In Vivo Release of Growth Hormone in Adult Beagle Dogs (Growth Hormone release [1]; oral dose 2 mg/kg, time 4 hr): 2.9; In Vivo Release of Growth Hormone in Adult Beagle Dogs (Growth Hormone release [1]; oral dose 2 mg/kg, time 5 hr): 3.3; In Vivo Release of Growth Hormone in Adult Beagle Dogs (Growth Hormone release [1]; oral dose 2 mg/kg, time 6 hr): 3.1; In Vivo Release of Growth Hormone in Adult Beagle Dogs (Growth Hormone release [1]; oral dose 2 mg/kg, time 7 hr): 3.3; In Vivo Release of Growth Hormone in Adult Beagle Dogs (Growth Hormone release [1]; oral dose 2 mg/kg, time 8 hr): 3; In Vitro Release of Growth Hormone in Rat, GH (Growth Hormone release [2]; compound at .0001 (dose unit not given)): 1228 ng/mL; In Vitro Release of Growth Hormone in Rat, GH (Growth Hormone release [2]; compound at .0003 (dose unit not given)): 1416 ng/mL; In Vitro Release of Growth Hormone in Rat, GH (Growth Hormone release [2]; compound at .001 (dose unit not given)): 1712 ng/mL; In Vitro Release of Growth Hormone in Rat, GH (Growth Hormone release [2]; compound at .003 (dose unit not given)): 1648 ng/mL; In Vitro Release of Growth Hormone in Rat, GH (Growth Hormone release [2]; [5]): 1621 ng/mL; In Vivo Release of Growth Hormone in Rat, GH (Growth Hormone release [3]; [4]): 2272 ng/mL; In Vivo Release of Growth Hormone in Rat, GH (Growth Hormone release [3]; [8]): 2929 ng/mL; In Vivo Release of Growth Hormone in Rat, GH (Growth Hormone release [3]; [6]): 262 ng/mL; In Vivo Release of Growth Hormone in Rat, GH (Growth Hormone release [3]; [7]): 274 ng/mL

Source: patent US7250399B2, “Compounds having growth hormone releasing activity” (The Administrators of the Tulane Educational Fund, priority 1998, dated 2007)
